Data taken from ChEMBL document CHEMBL5143630, “α-Synuclein binding activity of the plant growth promoter asterubine” (Bioorg Med Chem Lett, 2022).
Activity calls are given as the source filed them. The rule behind the calls is not given here.

Key:
[1] = Cytotoxicity against preformed fibrils-treated mouse TH-positive dopaminergic neurons at 0.1 to 10 uM incubated for 7 days by immunostaining analysis; format: toxicity, cell-based; conditions: neuron, 168 h, dose 0.1-10 µM, time 7 day
[2] = target: Alpha-synuclein (Homo sapiens) (UniProt P37840); test: Binding affinity to human alpha-synuclein expressed in Escherichia coli BL21(DE3) assessed as compound-protein complex formation at ratio of 1:1 incubated at compound:protein ratio of 10:1 for 3 hrs by ESI-MS spectrum analysis

CN(C)C(=N)NCCS(=O)(=O)O
Activity [1]: Non-Toxic
Activity [2]: Active
